In experiment [1] the target is T1, Dihydrofolate reductase (Homo sapiens, UniProt P00374).
T1 sequence (P00374 whole entry): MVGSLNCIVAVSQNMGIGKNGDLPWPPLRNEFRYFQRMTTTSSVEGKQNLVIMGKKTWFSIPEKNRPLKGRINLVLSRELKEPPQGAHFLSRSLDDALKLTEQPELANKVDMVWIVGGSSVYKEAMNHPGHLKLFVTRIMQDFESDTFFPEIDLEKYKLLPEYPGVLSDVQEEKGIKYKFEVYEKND
The experiment can be described thus: Competitive inhibition of mammalian dihydrofolate reductase.

Experiment [2] has as its system TA3. The experiment can be described thus: Evaluated for the concentration needed for 50% growth inhibition of mouse mammary adenocarcinoma cells (TA3) in culture. In kind it is functional. The settings on record: TA3, read-out: ID50.
The subject of experiment [3] is TA3. The experiment can be described thus: Evaluated for the concentration needed for 50% growth inhibition of mouse mammary adenocarcinoma cells (TA3) in culture. The settings on record: TA3, read-out: ID50. It counts as functional.
In experiment [4] the target is T1, Dihydrofolate reductase. The experiment can be described thus: Noncompetitive inhibition of mammalian Dihydrofolate reductase.

As usually defined, the Ki is the dissociation constant of the complex between target and ligand, obtained from inhibition or displacement.

The compound `Cc1nc(N)nc(N)c1NC(=O)C12CC3CC(CC(C3)C1)C2` showed a Ki in experiment [1] of 9 nM.
On to `Cc1nc(N)nc(N)c1C12CC3CC(CC(C3)C1)C2`, for which the IC50 in experiment [2] was found to be 6 nM.
On the same count and under the same terms, under `CCc1nc(N)nc(N)c1C12CC3CC(CC(C3)C1)C2` stands 0.25 nM.
In the case of `Cc1nc(N)nc(N)c1-c1ccc2ccccc2c1`, the IC50 in experiment [3] was determined as 70 nM.
As to `Cc1nc(N)nc(N)c1-c1cccc2ccccc12`, in experiment [4], the Ki was determined as 56000 nM.
On to `CN(Cc1cnc2nc(N)nc(N)c2n1)c1ccc(C(=O)N[C@@H](CCC(=O)O)C(=O)O)cc1` [METHOTREXATE], for which, in experiment [3], the IC50 is 8 nM.
